Assay results: patent US10561624B2, “Methods and materials for the treatment of testosterone deficiency in men” (REPROS THERAPEUTICS INC., priority 2001, dated 2020)
Where “and” joins values, the source holds several entries; their conditions need not be identical. Equal entries are not always repeated. Entries after “also recorded” stand apart in the source; their conditions may differ. Structures can show the parent of a compound that is named as a salt.

Key:
[1] = system: Adult, male, Baboons; assay: Effects on clinical chemistry parameters in male baboons; type: in vivo; conditions: for serum glucose: changes within the normal range; for anionic gap: day 12 of treatment and 7 days after treatment (washout); for Alkaline phosphatase (ALP): following treatment; for serum cholesterol: not statistically significant, within the normal range
Excerpt: (§1) The samples analyzed were sera taken on the day of first treatment before being given test article (day 0), after 12 days of treatment (day 12) and 7 days after the last treatment (end or wash-out).

[2] = Ernst et al.; cited from earlier work
[3] = cited from earlier work
[4] = system: Adult, male, Baboons; assay: Effects of Clomids on serum testosterone in male baboons; conditions: for effect on total serum testosterone / Serum Testosterone Levels, 12 days: 1.5 mg/kg for 12 consecutive days; for effect on total serum testosterone: male baboons; for Serum Testosterone Levels, 6 days, mean / Serum Testosterone Levels, 12 days, mean / Serum Testosterone Levels, wash-out, mean / Serum Testosterone Levels, baseline, mean / Serum Testosterone Levels, 0 day, mean: group mean of 3 baboons; for Serum Testosterone Levels, 6 days, mean / Serum Testosterone Levels, 6 days: 1.5 mg/kg daily, day 6; for Serum Testosterone Levels, 12 days, mean: 1.5 mg/kg for 12 days; for Serum Testosterone Levels, 12 days, mean / Serum Testosterone Levels, 12 days: day 12; for Serum Testosterone Levels, wash-out, mean / Serum Testosterone Levels, wash-out: 7 days after the last treatment; for Serum Testosterone Levels, baseline, mean: before treatment; for Serum Testosterone Levels, 0 day, mean / Serum Testosterone Levels, 0 day: day 0, before first dose; for Serum Testosterone Levels, 6 days / Serum Testosterone Levels, 12 days / Serum Testosterone Levels, wash-out / Serum Testosterone Levels, baseline / Serum Testosterone Levels, 0 day: individual baboon; for Serum Testosterone Levels, 6 days / Serum Testosterone Levels, 12 days: 1.5 mg/kg; for Serum Testosterone Levels, baseline: baseline Dec. 3, 2001, before treatment
Excerpt: as §1

[5] = system: Adult, male, Baboons; assay: Effects on body weight and serum LH, FSH, PRL in male baboons; type: in vivo; conditions: during the study
Excerpt: as §1

[6] = system: men; conditions: cited from earlier work

Row | Compound | serum glucose [1] | anionic gap [1] | Alkaline phosphatase (ALP) [1] | red blood cell population ([1]; in vivo) | serum cholesterol [1] | estrogenic / antiestrogenic activity [2] | effect on total serum testosterone [4] | Serum Testosterone Levels, 6 days, mean [4] [ng/dL] | Serum Testosterone Levels, 12 days, mean [4] [ng/dL] | Serum Testosterone Levels, wash-out, mean [4] [ng/dL] | Serum Testosterone Levels, baseline, mean [4] [ng/dL] | Serum Testosterone Levels, 0 day, mean [4] [ng/dL] | Serum Testosterone Levels, 6 days [4] | Serum Testosterone Levels, 12 days [4] | Serum Testosterone Levels, wash-out [4] | Serum Testosterone Levels, baseline [4] | Serum Testosterone Levels, 0 day [4] | also measured
1 | CCN(CC)CCOc1ccc(/C(=C(/Cl)c2ccccc2)c2ccccc2)cc1 [Zuclomid, cis-clomiphene] | increase | lower values than the Enclomid group | not elevated | substantive effects | tended to increase | more potent and more estrogenic | did not raise total serum testosterone to any extent; also recorded: not effective | 178.5 | 357.9 | 498.1 | 170.6 | 394.2 | 137.51 ng/dL and 169.98 ng/dL and 227.95 ng/dL | 314.5 ng/dL and 406.1 ng/dL and 353.0 ng/dL | 359.7 ng/dL and 860.5 ng/dL and 274.1 ng/dL | 124.84 ng/dL and 104.66 ng/dL and 282.29 ng/dL | 210.4 ng/dL and 67.37 ng/dL and 904.82 ng/dL | AST ([1]; in vivo): lowering; hematocrit ([1]; in vivo): substantive effects; half-life ([3]; relative to the other isomer in Clomid): longer half-life; residual blood levels following a single dose ([3]; reported in literature): in excess of one month
2 | CCN(CC)CCOc1ccc(/C(=C(\Cl)c2ccccc2)c2ccccc2)cc1 [Enclomid, trans-clomiphene] | no increases with treatment | raised this parameter towards normal values | decreased in value | substantive effects | tended to decrease | antiestrogenic | significant increases in total serum testosterone; also recorded: more effective than Clomid or Zuclomid | 1144.4 | 1088.5 | 325.8 | 134.0 | 105.0 | 1223.8 ng/dL and 1128.2 ng/dL and 1081.1 ng/dL | 633.6 ng/dL and 1466 ng/dL and 1166 ng/dL | 307.2 ng/dL and 399.2 ng/dL and 271 ng/dL | 64.57 ng/dL and 166.86 ng/dL and 170.45 ng/dL | 74.96 ng/dL and 133.59 ng/dL and 106.47 ng/dL | serum prolactin (PRL) [5]: decrease; platelets ([1]; 12-day treatment, values stayed within the normal range): clear effect; serum creatinine ([1]; between day 0 and Day 12): no differences; counts of lymphocytes and eosinophiles ([1]; in vivo): raising the counts; count and percent lymphocytes ([1]; mean percent remains in the normal range): increase; percent of granulocytes in the blood ([1]; very strong after the 7-day washout, below the normal range): strong effect; change of total serum testosterone after cessation of treatment ([4]; between day 12 and day 18 (washout)): significant drop; total serum testosterone on days 6 and 12 compared with baseline or day 0 (FIG. 3 time course) ([4]; days 6 and 12 vs baseline or day 0): significantly and statistically raised total serum testosterone; clearance from the circulation ([4]; inferred from testosterone drop after cessation): readily cleared from the circulation
3 | CCN(CC)CCOc1ccc(C(=C(Cl)c2ccccc2)c2ccccc2)cc1 [Clomid, clomiphene citrate] | increase | lower values than the Enclomid group | – | – | – | – | – | 559.3 | 588.7 | 203.6 | 111.5 | 161.4 | – | – | – | – | – | LH, FSH, and testosterone after 2 months ([6]; Guay et al. 1995, 2 months): increase in LH, FSH, and testosterone; erectile dysfunction ([6]; Guay et al. 1995, 2 months): no effects on erectile dysfunction; FSH, LH in young and old men ([6]; Tenover et al. 1987): increased in FSH, LH; free and total testosterone in men ([6]; Tenover et al. 1987): increases in free and total testosterone; semen quality or fertility ([6]; WHO study, 6 months of treatment): no changes in semen quality or fertility; side effects ([6]; approved cis/trans mixture): blurred vision, abdominal discomfort, gynecomastia, testicular tumors, vasomotor flushes, nausea, and headaches; genotoxicity and tumor enhancement ([6]; other studies): genotoxic and tumor enhancement effects; variability of total testosterone levels (coefficients of variations) ([4]; day 6 and later, compared to animals receiving Enclomid): more variable total testosterone levels; Serum Testosterone Levels, 6 days ([4]; listed as CLO): 940.97 ng/dL and 585.92 ng/dL and 151.12 ng/dL; Serum Testosterone Levels, 12 days ([4]; listed as CLO): 891.5 ng/dL and 555.6 ng/dL and 318.9 ng/dL; Serum Testosterone Levels, wash-out ([4]; listed as CLO): 150.9 ng/dL and 316.3 ng/dL and 143.6 ng/dL; Serum Testosterone Levels, baseline ([4]; listed as CLO): 79.01 ng/dL and 97.55 ng/dL and 158.06 ng/dL; Serum Testosterone Levels, 0 day ([4]; listed as CLO): 76.15 ng/dL and 305.24 ng/dL and 102.94 ng/dL
